# System: Eimeria tenella
# Experiment: Minimum effective concentration in feed to protect chickens against infections caused by Eimeria tenella
# Type: functional
# Details: not given
row,Structure (SMILES),MEC
1,O=c1cnn(-c2cc(Cl)c(Sc3ccc(S(=O)(=O)N4CCOCC4)cc3)c(Cl)c2)c(=O)[nH]1,>60 p.p.m.
2,CC(C)(C)c1ccc(S(=O)(=O)c2ccc(-n3ncc(=O)[nH]c3=O)cc2)cc1,>250 p.p.m.
3,COc1cc(-n2ncc(=O)[nH]c2=O)ccc1S(=O)(=O)c1ccc(Cl)cc1,>125 p.p.m.
4,Cc1cc(-n2ncc(=O)[nH]c2=O)ccc1Sc1ccc(Cl)cc1,2 p.p.m.
5,O=c1cnn(-c2cc(Cl)c(Sc3ccc(Cl)cc3)c(Cl)c2)c(=O)[nH]1,0.25 p.p.m.
6,O=c1cnn(-c2ccc(S(=O)(=O)Cc3ccc(Cl)cc3)cc2)c(=O)[nH]1,250 p.p.m.
7,O=c1cnn(-c2ccc(S(=O)(=O)c3ccccc3)cc2)c(=O)[nH]1,30 p.p.m.
8,Cc1cc(-n2ncc(=O)[nH]c2=O)cc(C)c1[S+]([O-])c1ccc(Cl)cc1 (stereo not given),1 p.p.m.
9,O=c1cnn(-c2ccc(S(=O)(=O)c3ccc(Cl)cc3)c(Cl)c2)c(=O)[nH]1,2 p.p.m.
10,Cc1cc(-n2ncc(=O)[nH]c2=O)cc(C)c1Sc1ccc(I)cc1,15 p.p.m.
11,O=c1cnn(-c2ccc(Sc3ccc(Cl)cc3)c([N+](=O)[O-])c2)c(=O)[nH]1,60 p.p.m.
12,O=c1cnn(-c2cc(Cl)c(Sc3ccccc3)c(Cl)c2)c(=O)[nH]1,8 p.p.m.
13,O=c1cnn(-c2ccc(S(=O)(=O)Cc3ccccc3)cc2)c(=O)[nH]1,>125 p.p.m.
14,O=c1cnn(-c2ccc(Sc3ccc(Br)cc3)c(Cl)c2)c(=O)[nH]1,2 p.p.m.
15,CSc1c(Cl)cc(-n2ncc(=O)[nH]c2=O)cc1Cl,30 p.p.m.
16,Cc1ccc(S(=O)(=O)c2ccc(-n3ncc(=O)[nH]c3=O)cc2)cc1,250 p.p.m.
17,Cc1cc(-n2ncc(=O)[nH]c2=O)cc(C)c1Sc1ccc(Cl)cc1 [TIAZURIL],0.5 p.p.m.
18,CCc1cc(-n2ncc(=O)[nH]c2=O)cc(C)c1Sc1ccc(Cl)cc1,60 p.p.m.
19,Cc1cc(-n2ncc(=O)[nH]c2=O)ccc1[S+]([O-])c1ccc(Cl)cc1 (stereo not given),4 p.p.m.

row,Structure (SMILES),MEC
1,Cc1cc(-n2ncc(=O)[nH]c2=O)ccc1S(=O)(=O)c1ccc(Cl)cc1,2 p.p.m.
2,CC(c1ccccc1)S(=O)(=O)c1ccc(-n2ncc(=O)[nH]c2=O)cc1 (stereo not given),>125 p.p.m.
3,Cc1cc(-n2ncc(=O)[nH]c2=O)cc(Cl)c1S(=O)(=O)c1ccc(Cl)cc1,15 p.p.m.
4,O=c1cnn(-c2ccc(S(=O)(=O)c3ccc(Cl)cc3)cc2)c(=O)[nH]1,4 p.p.m.
5,CS(=O)(=O)c1c(Cl)cc(-n2ncc(=O)[nH]c2=O)cc1Cl,>125 p.p.m.
6,O=c1cnn(-c2cc(Cl)c(S(=O)(=O)c3ccc(Cl)cc3)c(Cl)c2)c(=O)[nH]1,0.5 p.p.m.
7,O=c1cnn(-c2ccc(S(=O)(=O)c3ccc([N+](=O)[O-])cc3)cc2)c(=O)[nH]1,>250 p.p.m.
8,Cc1cc(-n2ncc(=O)[nH]c2=O)ccc1S(=O)(=O)c1ccc(Br)cc1,15 p.p.m.
9,Cc1cc(-n2ncc(=O)[nH]c2=O)cc(C)c1S(=O)(=O)c1ccc(Cl)cc1,1 p.p.m.
10,O=c1cnn(-c2ccc(Sc3ccc4ccccc4c3)c(Cl)c2)c(=O)[nH]1,125 p.p.m.
11,Cc1cc(-n2ncc(=O)[nH]c2=O)cc(Cl)c1Sc1ccc(Cl)cc1,0.25 p.p.m.
12,O=c1cnn(-c2ccc(Sc3ccc(Cl)cc3)cc2)c(=O)[nH]1,4 p.p.m.
13,O=c1cnn(-c2ccc(Sc3ccc(Cl)cc3)c(Cl)c2)c(=O)[nH]1,2 p.p.m.
14,O=c1cnn(-c2cc(Br)c(Sc3ccc([N+](=O)[O-])cc3)c(Br)c2)c(=O)[nH]1,8 p.p.m.
15,O=c1cnn(-c2ccc(S(=O)(=O)c3ccc(Br)cc3)cc2)c(=O)[nH]1,8 p.p.m.
16,C[S+]([O-])c1c(Cl)cc(-n2ncc(=O)[nH]c2=O)cc1Cl (stereo not given),>125 p.p.m.
17,Cc1ccccc1S(=O)(=O)c1ccc(-n2ncc(=O)[nH]c2=O)cc1,>125 p.p.m.
18,CC(C)(C)c1ccc(Sc2ccc(-n3ncc(=O)[nH]c3=O)cc2Cl)cc1,>60 p.p.m.
19,O=c1cnn(-c2ccc(Sc3ccc([N+](=O)[O-])cc3)cc2)c(=O)[nH]1,30 p.p.m.

# System: not listed separately
# Experiment: Plasma half-life in 2 weeks-old chickens
# Type: ADME, organism-based, Gallus gallus
# Details: chicken
row,Structure (SMILES),half-life
1,Cc1cc(-n2ncc(=O)[nH]c2=O)ccc1S(=O)(=O)c1ccc(Cl)cc1,600 min
2,O=c1cnn(-c2ccc(S(=O)(=O)c3ccc(Br)cc3)cc2)c(=O)[nH]1,1140 min

# System: not listed separately
# Experiment: Plasma half-life in 6-8 weeks old broiler chickens
# Type: ADME, organism-based, Gallus gallus
# Details: chicken
row,Structure (SMILES),half-life
1,O=c1cnn(-c2cc(Cl)c(Sc3ccc(Cl)cc3)c(Cl)c2)c(=O)[nH]1,2820 min
2,Cc1cc(-n2ncc(=O)[nH]c2=O)cc(C)c1Sc1ccc(Cl)cc1 [TIAZURIL],960 min
3,Cc1cc(-n2ncc(=O)[nH]c2=O)ccc1S(=O)(=O)c1ccc(Cl)cc1,870 min
4,Cc1cc(-n2ncc(=O)[nH]c2=O)cc(Cl)c1S(=O)(=O)c1ccc(Cl)cc1,1560 min
5,O=c1cnn(-c2ccc(Sc3ccc(Cl)cc3)c(Cl)c2)c(=O)[nH]1,2280 min

# — ChEMBL document CHEMBL1121746, “Anticoccidial derivatives of 6-azauracil. 4. A 1000-fold enhancement of potency by phenyl sulfide and phenyl sulfone side chains” (J Med Chem, 1981)
